A word on the MIC: it is the lowest concentration that inhibits growth of the organism. Read a high MIC as a need for much substance. In general, Ki refers to the dissociation constant of the complex between target and ligand, obtained from inhibition or displacement. The low end stands for higher affinity, the high end for lower affinity.

Values after ≈ are worked out from the molar mass of the structure shown.

The subject of one experiment is Acinetobacter baumannii. Put plainly: Antibacterial activity against Acinetobacter baumannii after 20 to 22 hrs by broth microdilution method. Format: functional.
A further experiment deals with T1, Beta-lactamase 1 (Bacillus cereus, UniProt P00809).
T1 sequence (P00809 whole entry): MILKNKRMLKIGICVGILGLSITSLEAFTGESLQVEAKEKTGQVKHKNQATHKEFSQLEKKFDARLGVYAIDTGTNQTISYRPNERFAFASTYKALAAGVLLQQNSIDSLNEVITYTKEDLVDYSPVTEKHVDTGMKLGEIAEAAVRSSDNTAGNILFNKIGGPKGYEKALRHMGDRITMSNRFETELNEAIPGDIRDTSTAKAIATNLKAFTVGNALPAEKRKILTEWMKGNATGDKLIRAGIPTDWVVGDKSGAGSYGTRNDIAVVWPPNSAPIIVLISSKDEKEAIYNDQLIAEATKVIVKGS
Put plainly: Inhibition of Bacillus cereus beta-lactamase […] using CENTA as substrate up to 30 mins by Lineweaver-Burk plot analysis.

`C[C@]1(COC(=O)Cc2ccc(O)c(O)c2)[C@H](C(=O)O)N2C(=O)/C(=C/c3ccccn3)[C@H]2S1(=O)=O` gave an MIC against Acinetobacter baumannii of 2 µg/mL (≈ 4.09 µM).
On Beta-lactamase 1, `O=C(O)c1cccc(CS(=O)(=O)C(=O)NCB(O)O)c1` displayed a Ki of 1.3 nM.
The same measure, in the same setting: then `O=C(NCB(O)O)S(=O)(=O)c1cc(Cl)cc(-c2nnn[nH]2)c1`, with 0.2 nM.
Still for that read-out and setting: the same measure for `O=C(NCB(O)O)S(=O)(=O)c1cc(-c2nnn[nH]2)cc(C(F)(F)F)c1`: 0.05 nM; for `O=C(NCB(O)O)S(=O)(=O)c1ccnc(-c2nnn[nH]2)c1`: 0.8 nM.

The values above are taken from ChEMBL document CHEMBL4177567, “Antibiotic adjuvants - A strategy to unlock bacterial resistance to antibiotics” (Bioorg Med Chem Lett, 2017).
